Measurements: patent publication US6656941B2, “Aryl substituted tetrahydroindazoles” (Neurogen Corporation, priority 2000, dated 2003)

For CCCNCCOc1ccc(NC(=O)c2n[nH]c3c2C(=O)CCC3)cn1 [Example 4, 4-Oxo-4,5,6,7-tetrahydro-1H-indazole-3-carboxylic acid [6-(2-propylamino-ethoxy)-pyridin-3-yl]-amide], which melting point is on record?
Its melting point is 120 °C.
